The results in this text go back to PubChem BioAssay AID1996.

What is called solubility (kinetic) is solubility judged after dilution from a stock solution rather than from solid.

≈ marks a conversion by molar mass, not a printed value.

The conditions of the data set: buffer; pH 7.4; 200.0 µM.
For `CSc1ncccc1C(=O)OCC(=O)NC(C)C`, the solubility (kinetic) is more than 40.2 µg/mL. Under `C=CCn1c(C)cc(C(=O)COC(=O)CCc2cc(OC)c(OC)c(OC)c2)c1C` stands 31.8 µg/mL (≈ 76.5 µM). Then `C=CCn1c(O)c(C(C)=NCCc2c[nH]c3ccccc23)c(=O)[nH]c1=O`, with 33.5 µg/mL (≈ 95.1 µM); and `COc1ccc2occ(C(=O)c3ccc(N)cc3)c2c1`, with 1.7 µg/mL (≈ 6.36 µM). In turn, `Cc1cc(N2CCCC2)c(F)cc1/C=C\[N+](=O)[O-]` yielded a solubility (kinetic) of 0.4 µg/mL (≈ 1.6 µM).

`NC(=O)COC(=O)CCSc1ccc(Cl)cc1` registered a solubility (kinetic) of 30.2 µg/mL (≈ 110 µM). Then `Cc1cc(Cl)cc(Cl)c1OCCN1CCCC1`, with 30.2 µg/mL (≈ 110 µM). `CCCOc1ccc(CNC(=O)Cc2cccs2)cc1` had a solubility (kinetic) of 19.9 µg/mL (≈ 68.8 µM). Under `Cc1c(NC(=O)c2ccc3nsnc3c2)cccc1[N+](=O)[O-]` stands 2.3 µg/mL (≈ 7.32 µM); under `CCOc1ccccc1NC(=O)c1cnccn1`, more than 36.5 µg/mL; under `CCN1C(=O)c2cccc3c(S(=O)(=O)N(C(C)=O)c4ccc(OC(C)=O)cc4)ccc1c23`, 4.3 µg/mL (≈ 9.5 µM).

For the compound `CC(C)(C)NC(=O)COC(=O)c1ccc(Cl)cc1O`, the solubility (kinetic) is 7.3 µg/mL (≈ 25.5 µM). Then `Nc1ccc(S(=O)(=O)NC2=NCCCCC2)cc1N`, with more than 42.4 µg/mL; and `Cc1ccc(CN2CCC(N3CC(C)OC(C)C3)CC2)cc1.Cl` (stereo not drawn), with 31.8 µg/mL. Then `CCc1[nH]c(C(=O)O)c(C)c1C(=O)OC`, with more than 31.7 µg/mL; and `CC(=O)Nc1nc(-c2cccc3ccccc23)cs1`, with 5.3 µg/mL (≈ 19.8 µM); and `CCOc1ccccc1CN1C2CCC1CC(c1ccc(C)cc1)C2` (stereo not drawn), with 35 µg/mL (≈ 104 µM). Under `O=C(CNC(=O)c1ccc(Cl)cc1Cl)OCc1cn2cc(Br)ccc2n1` stands 29.7 µg/mL (≈ 65 µM); under `COc1ccc(/C=C/C(=O)O)cc1S(=O)(=O)N1CCCCC1`, more than 48.8 µg/mL. For `O=C1CCC([N+](=O)[O-])C(c2ccccc2F)N1` (stereo not drawn), the kinetic solubility was more than 35.7 µg/mL. `O=C(Nc1ncc([N+](=O)[O-])s1)c1ccc2c(c1)OCO2` returned a solubility (kinetic) of 24.9 µg/mL (≈ 84.9 µM). `Cc1ncsc1C(=O)Nc1cccc(C(F)(F)F)c1` returned a solubility (kinetic) of 40.7 µg/mL (≈ 142 µM).

On to `O=C(Nc1ccno1)Nc1ccc(Cl)cc1Cl`, for which the kinetic solubility is 5.4 µg/mL (≈ 19.8 µM). Consider `O=C1C2CCN(CC2)C12CC2c1ccc(C(F)(F)F)cc1` (stereo not drawn), for which the solubility (kinetic) came out at 23.9 µg/mL (≈ 80.9 µM). Then `CCOC(=O)/C(C#N)=C\c1ccc(OC)c(OC)c1`, with 2.4 µg/mL (≈ 9.19 µM). Consider `COc1ccc(N2C(=O)CC(C)(C)CC2=O)cc1OC`, for which the solubility (kinetic) was more than 41.6 µg/mL.

The compound `CCC(NC(=O)C1CCCC1)c1ccccc1` (stereo not drawn) yielded a kinetic solubility of more than 34.7 µg/mL. Then `O=[N+]([O-])c1ccccc1COc1ccc(Cl)c2cccnc12`, with less than 0.3 µg/mL.

In turn, `COc1ccc(NC(=O)CN(C)C(=O)c2ccc3ccccc3n2)cc1` yielded a solubility (kinetic) of more than 52.4 µg/mL.

Turning to `Cc1ccc2[nH]c(C(=O)N3CCOCC3)cc2c1`, the kinetic solubility was more than 36.6 µg/mL. For the compound `C/C(=N\O)C(=O)C(CN1CCCCC1)CN1CCCCC1`, the solubility (kinetic) was 30.2 µg/mL (≈ 102 µM). Under `CC(C)CN(CC(C)C)C(=S)Nc1ccc(Cl)cc1` stands 2.2 µg/mL (≈ 7.36 µM). In turn, `Cc1ccccc1OCCCC(=O)NC1CCCCC1` showed a kinetic solubility of 3.7 µg/mL (≈ 13.4 µM). Then `Cc1onc(-c2c(F)cccc2Cl)c1C(O)c1ccc(F)cc1` (stereo not drawn), with more than 50.4 µg/mL; and `Cc1ccc(S(=O)(=O)N2CCOC2C(Cl)(Cl)Cl)cc1` (stereo not drawn), with 2.6 µg/mL (≈ 7.54 µM); and `Cc1nonc1NC(=O)CSc1ccccn1`, with more than 37.5 µg/mL. `COc1ccc(CCNS(=O)(=O)c2ccc3[nH]c(=O)[nH]c3c2)cc1` gave a solubility (kinetic) of 11.3 µg/mL (≈ 32.5 µM). Then `CCCCc1noc(-c2c(-c3ccccc3Cl)noc2C)n1`, with 0.6 µg/mL (≈ 1.89 µM); and `CCOc1ccc(S(=O)(=O)/N=C(/Nc2ccc(S(N)(=O)=O)cc2)c2ccccc2)cc1`, with 2.2 µg/mL (≈ 4.79 µM); and `CN(C)Cc1c(O)ccc2c(=O)c(-c3ccccc3Cl)coc12`, with more than 49.5 µg/mL. In the case of `COc1cccc(-c2cc(C(=O)NCc3ccco3)c3ccccc3n2)c1`, the kinetic solubility was 11.6 µg/mL (≈ 32.4 µM). Under `CC(C)NC(=O)COC(=O)c1ccc(Cl)c(S(N)(=O)=O)c1` stands more than 50.2 µg/mL. In turn, `O=C(c1ccsc1)N1CCCC(Nc2ccc(F)c(F)c2)C1` (stereo not drawn) gave a kinetic solubility of 44.5 µg/mL (≈ 138 µM). With `COc1cc(/C=N/Nc2ccccn2)cc(OC)c1O`, the kinetic solubility was more than 41 µg/mL. Then `COc1ccc(-c2nc3ccccc3c(=O)n2CC(C)C)cc1`, with 38.3 µg/mL (≈ 124 µM); and `CCOc1ccc(S(=O)(=O)N=C(c2ccccc2)N2CCOCC2)cc1`, with more than 56.2 µg/mL. Then `O=C(CSc1cc(Cl)ccc1Cl)NCCCn1ccnc1`, with 45.3 µg/mL (≈ 132 µM). As for `COc1ccc(NC(=O)CSc2nnc(N)s2)c([N+](=O)[O-])c1`, the solubility (kinetic) was more than 51.2 µg/mL. In turn, `CCCc1cc(=O)[nH]c(SCC(=O)N2CCOCC2)n1` registered a solubility (kinetic) of more than 44.6 µg/mL. Then `Cc1ccc(NC(=O)c2cc3ccccc3cc2O)cc1`, with less than 0.6 µg/mL; and `Cc1cc2c(SCC(=O)NCC3CCCO3)ncnc2s1` (stereo not drawn), with more than 48.5 µg/mL. Then `O=C(COC(=O)CNC(=O)c1ccc(Cl)c([N+](=O)[O-])c1)NC(=O)c1ccccc1`, with 52.9 µg/mL (≈ 126 µM); and `COc1ccc(Nc2ncnc3sccc23)cc1`, with 36 µg/mL (≈ 140 µM).

On to `Cc1cc(C)nc(NC(=O)Nc2ccc(F)cc2F)n1`, for which the solubility (kinetic) is 10.2 µg/mL (≈ 36.7 µM). Then `CCCCN(C)CCNC(=O)C(NC(=O)C1CCC(C)CC1)C(C)C` (stereo not drawn), with more than 53 µg/mL; and `CS(=O)(=O)N1CCC(C(=O)NCc2ccc(F)cc2)CC1`, with more than 47.2 µg/mL; and `O=C(Cc1cccs1)NCc1cccc(C(F)(F)F)c1`, with 42.1 µg/mL (≈ 141 µM). For `Cc1sc2nc(C(C)C)nc(SCC(=O)NC3CC3)c2c1C`, the solubility (kinetic) turned out to be 1.5 µg/mL (≈ 4.47 µM).

`CCc1ccc(S(=O)(=O)Nc2ccc(C)c(NS(C)(=O)=O)c2)cc1` registered a kinetic solubility of 48.6 µg/mL (≈ 132 µM).

Take `O=C(CSc1nc2cc(Cl)ccc2s1)NCC1CCCO1` (stereo not drawn): the solubility (kinetic) is more than 51.4 µg/mL. `COc1ccc(C)cc1NC(=O)C1CCCCN1S(=O)(=O)c1ccccc1` (stereo not drawn) displayed a solubility (kinetic) of 12 µg/mL (≈ 30.9 µM). Under `O=C(NCCCN1CCOCC1)c1cc2ccccc2cc1O` stands more than 47.2 µg/mL. Then `Cc1cc(C)nc(SCC(N)=O)n1`, with 28.5 µg/mL (≈ 144 µM); and `O=C(Cn1c(=O)cnc2ccccc21)NC1CCC(O)CC1` (stereo not drawn), with more than 45.2 µg/mL. Take `CN1CCN(c2c(/C=N/O)c3ccccc3n2C)CC1`: the solubility (kinetic) was more than 40.9 µg/mL. The compound `O=C(NCc1ccc(Cl)cc1)N1CCN(Cc2ccccc2)CC1` gave a solubility (kinetic) of more than 51.6 µg/mL.

Turning to `COc1ccc(-c2cc(C(=O)N3CCCC3)no2)cc1OC`, the solubility (kinetic) was found to be 43.8 µg/mL (≈ 145 µM). `Cc1ccccc1N=C1NC(=O)/C(=C/c2cccnc2)S1` displayed a solubility (kinetic) of 38.1 µg/mL (≈ 129 µM). For the compound `CC(=O)N(CCOc1ccccc1)CCOc1ccccc1`, the kinetic solubility was more than 44.9 µg/mL. As to `CC(CN)(NS(=O)(=O)c1ccccc1)c1ccccc1` (stereo not drawn), the solubility (kinetic) is more than 43.6 µg/mL. The compound `N#Cc1ccccc1S(=O)(=O)Nc1ccc2c(c1)OCCO2` gave a solubility (kinetic) of more than 47.4 µg/mL. Under `CCOC(=O)CNC(=O)N1c2ccccc2Sc2ccccc21` stands more than 49.3 µg/mL; under `O=C(CCc1ccccc1)N1CCCC(Nc2ccc(F)cc2)C1` (stereo not drawn), 41.4 µg/mL (≈ 127 µM); under `CC(=O)Nc1cc2c(cc1[N+](=O)[O-])OCCO2`, more than 35.7 µg/mL. Under `CC(=O)Nc1ccc(C(=O)OCC(=O)N2CCCC2=O)cc1` stands more than 45.6 µg/mL; under `CC(=O)N(CN1C(=O)CCC1=O)c1ccc(Cl)c(Cl)c1`, more than 47.3 µg/mL; under `COc1cccc(CNCCc2c[nH]c3ccccc23)c1OC.Cl`, more than 52 µg/mL. Then `CC(C)(C)C(=O)Nc1ccccc1-c1nc2ccccc2[nH]c1=O`, with more than 48.2 µg/mL; and `O=C(O)/C=C/c1cccc(NC(=O)c2ccccc2)c1`, with 34 µg/mL (≈ 127 µM). With `O=C(CN1C(=O)NC2(CCCC2)C1=O)NCCc1ccc(F)cc1`, the kinetic solubility came to 44.4 µg/mL (≈ 133 µM). As to `Cc1ccc(NC(=O)Cc2c[nH]c3ccccc23)cc1`, the kinetic solubility was 3.2 µg/mL (≈ 12.1 µM). In turn, `COc1ccccc1Sc1nc(-c2ccccc2)ncc1OC` gave a solubility (kinetic) of 1.1 µg/mL (≈ 3.39 µM).

`O=C(Nc1ccc(CN2CCOCC2)cc1)c1ccc(Br)cc1` displayed a kinetic solubility of 0.6 µg/mL (≈ 1.6 µM). With `COc1ccc(Cc2nc3ccccc3[nH]c2=O)cc1`, the solubility (kinetic) was determined as 4.7 µg/mL (≈ 17.6 µM).

For the compound `CCOc1ccc(C(=O)NCc2ccc3c(c2)OCO3)cc1`, the solubility (kinetic) is 11.3 µg/mL (≈ 37.8 µM). On to `O=C(Cc1ccc(F)cc1)Nc1nc(-c2ccc(F)c(F)c2)cs1`, for which the solubility (kinetic) is 1.4 µg/mL (≈ 4.02 µM). As to `Cc1[nH]c(=O)[nH]c(=O)c1S(=O)(=O)Nc1ccc(F)c([N+](=O)[O-])c1`, the solubility (kinetic) was more than 51.6 µg/mL. Compound `O=c1ccnc(SCCc2ccccc2)[nH]1` showed a kinetic solubility of more than 34.8 µg/mL.

Compound `N=C1c2ccccc2CN1c1ccc(F)c([N+](=O)[O-])c1` had a kinetic solubility of more than 40.7 µg/mL. Take `O=C(Nc1sc2c(c1C(=O)O)CCCCC2)c1cccnc1`: the kinetic solubility is more than 47.5 µg/mL. Under `Cc1ccc(N=C(NO)c2cnccc2C(F)(F)F)c(C)c1` stands more than 46.4 µg/mL; under `C=CCNc1cc(=O)n(Cc2ccccc2)c(=O)[nH]1`, 29.7 µg/mL (≈ 115 µM); under `CCC1CCCCN1C(=S)NC(=O)c1ccco1` (stereo not drawn), more than 40 µg/mL. With `NC(=O)COC(=O)C1CSC2(c3ccc(F)cc3)CCC(=O)N12` (stereo not drawn), the kinetic solubility is 49.4 µg/mL (≈ 146 µM).

Compound `COc1ccc(NC(=O)c2cc(-c3ccncc3)nc3ccccc23)c(OC)c1` yielded a kinetic solubility of 4.2 µg/mL (≈ 10.9 µM). `Cc1ccc(S(=O)(=O)N2CCOCC2)cc1NC(=O)CN1C(=O)NC(C)(c2ccc(Cl)cc2Cl)C1=O` (stereo not drawn) showed a kinetic solubility of 46.1 µg/mL (≈ 83 µM). Regarding `N/C(=N\OC(=O)c1ccc(OCC(F)(F)F)nc1)c1ccc(Cl)cc1`, the solubility (kinetic) came to 1.2 µg/mL (≈ 3.21 µM). Under `CCN(CC)CCN=Cc1c(O)n(Cc2ccccc2)c(=O)[nH]c1=O` stands more than 51.7 µg/mL; under `C[C@H](Nc1ccc(C(F)(F)F)cc1[N+](=O)[O-])C(=O)O.[Cl-]`, more than 47 µg/mL. Under `NC(=O)c1ccsc1NC(=O)COC(=O)CCOc1ccccc1` stands 16.9 µg/mL (≈ 48.5 µM); under `NC(=O)c1ccc(Nc2ccc3c(c2)CCC3)c([N+](=O)[O-])c1`, 2.6 µg/mL (≈ 8.74 µM); under `COc1ccc(N(C(=O)c2ccncc2)S(=O)(=O)c2ccc(F)cc2)cc1`, 50.9 µg/mL (≈ 132 µM).

`CCNc1nc(SCC(=O)OC)nc(N(C)C)n1`: the kinetic solubility was more than 40.7 µg/mL.
